Measured values from paper PMC9920254 (Molecules, 2023).
Values joined by “and” are separate entries in the source; they are usually repeats but may differ in a detail not shown here. Equal entries are not always repeated. Where two headings read alike, the source gives them in different places.

Columns and labels:
[1] = Metabolite profiling of PND in rat bile, urine, feces and plasma by UHPLC–HRMS; format: in vivo; conditions: feces
Protocol: Rats, three animals in each group, were randomly selected and treated with PND orally (3.5 mg/kg) or intravenously (0.35 mg/kg). Blood samples were collected into heparinized tubes by retro-orbital bleeding via capillary tubes under isoflurane anesthesia at 0.33, 3 and 8 h after oral administration and at 0.25, 4 and 8 h after intravenous injection. Plasma was separated by centrifuging the blood samples at 3000 rpm for 10 min. Rats were individually housed in metabolic cages (Tecniplast, Buguggiate, Italia) for collecting urine and feces samples. Additionally, the bile duct of rats under anesthesia with chloral hydrate (10% w/v) were cannulated with a S2-RBDC cannula (Skillsmodel, Beijing) for collecting bile. Urine and feces as well as bile samples were collected pre-dosing and at the following intervals postdosing: 0–2, 2–4, 4–6, 6–8, 8–10, 10–12 (0–12 for feces sample), 12–24, 24–36, 36–48 and 48–72 h. Bile and urine volume was recorded. Feces samples were freeze-dried, weighed, powered, added with water (9 mL/g) and homogenized. All samples were stored at −40 °C until analysis.
Identification analysis of metabolites in bio-samples was performed as described previously using a Dionex Ultimate 3000 UHPLC system combined with a Q-Exactive Focus Orbitrap mass spectrometer (Thermo Fischer Scientific, MA, USA) fitted with a CORTECS T3 column (2.1 × 150 mm, 2.7 μm; Waters, MA, USA). […]

[2] = Pharmacokinetic profile of PND in rats with or without ibrutinib (UGTs inhibitor) pretreatment; format: in vivo, rat; conditions: for Cmax / Tmax: 3.5 mg/kg; for MRT inf: n = 3, read-out: MRT0-∞
Protocol: Ibrutinib, a broad inhibitor of UGTs, was used to block the metabolism of PND via UGTs. PND and ibrutinib were formulated in PEG 300-water (70%: 30%, v/v) and DMSO-Cremophor EL-water (10%: 30%: 60%, v/v/v), respectively. Rats were pretreated through intraperitoneal (i.p.) injection of ibrutinib (100 mg/kg) or vehicle (three rats per group). After 0.5 h, PND (3.5 mg/kg) were administrated via gavage. Then blood samples were taken into heparinized tubes for separating plasma. Time points included before dosing, at 5, 20 and 45 min and 1.25, 2, 3, 4, 6, 8, 12, 24 and 48 h after dosing. Plasma was separated by centrifuging the blood samples at 3000 rpm for 10 min and then stored at −40 °C until analysis. The plasma samples were analyzed using the reported LC–MS/MS method as described in our previous study.
Figures and statistics were plotted and calculated using GraphPad Prism (version 8.4.3) and Microsoft Excel (version 2019). Metabolic pathways were illustrated with ChemBioDraw Ultra (version 13.0). Pharmacokinetic parameters were estimated using non-compartmental methods (WinNonlin version 2.0, Pharsight Co., Certara, NJ, USA). All pharmacokinetic parameters were given as the mean ± standard deviation. All statistical analyses were performed using SAS (version 9.4; SAS Institute Inc., Cary, NC, USA). A p value < 0.05 was considered statistically significant.

[3] = rat bile, after 72 h of administration via gavage (3.5 mg/kg) and injection (0.35 mg/kg)
[4] = rat LMs
[5] = mouse LMs
[6] = human LMs
CYPs (rat LMs) = conditions: rat LMs (RLM)
CYPs (mouse LMs) = conditions: mouse LMs (MLM)
CYPs (human LMs) = conditions: human LMs (HLM)
UGTs (rat LMs) = conditions: rat LMs (RLM)
UGTs (mouse LMs) = conditions: mouse LMs (MLM)
UGTs (human LMs) = conditions: human LMs (HLM)
IAV = system: IAV; set-up: method as in PMID 32520560; conditions: mice, oral dosing; superior to oseltamivir; cited from earlier work
[7] = set-up: method as in PMID 32520560; conditions: cited from earlier work
CYPs [8] = experiment: in vitro; conditions: rat, pH 7.4
CYPs [9] = experiment: in vitro; conditions: mouse, pH 7.4
CYPs [10] = experiment: in vitro; conditions: human, pH 7.4
[11] = PND i.g 3.5 mg/kg, ibrutinib i.p. 100 mg/kg versus control
[12] = rat, plasma, oral, PND i.g 3.5 mg/kg after i.p. Ibrutinib (100 mg/kg) pretreatment, Mean ± SD, n = 3
[13] = rat, plasma, po, PND i.g 3.5 mg/kg, Control, Mean ± SD, n = 3

In the case of CC(=O)c1cc(C)c(O)c(Cc2[nH]c3ccccc3c2Cc2c(O)c(C)cc(C(C)=O)c2O)c1O [PND, Penindolone], the “Detection of PND (M0) in bio-samples” value [1] is reported as “detected in all bio-samples”, the CLz ([2]; PND i.g 3.5 mg/kg, Control, Mean ± SD, n = 3) is reported as 14.7 ± 3.67 mL/min/kg and the “Elevation of Cmax of PND after pretreatment with ibrutinib” value [2, 11] is reported as 18.78%. For the same molecule, the “Increase of AUC0–∞ of PND after combination with ibrutinib” value [2, 11] was 30.56%, the Cmax ([2]; rat, plasma, oral, PND i.g 3.5 mg/kg after i.p. Ibrutinib (100 mg/kg) pretreatment, Mean ± SD, n = 3, read-out: Cmax-1) was 272 ± 36.9 ng/mL and the Tmax ([2]; rat, plasma, oral, PND i.g 3.5 mg/kg after i.p. Ibrutinib (100 mg/kg) pretreatment, Mean ± SD, n = 3, read-out: Tmax-1) was 0.47 ± 0.24 h. It also gave an AUC(0-inf) [2, 12] of 5450 ± 2690 ng·h/mL, a Vd [2, 12] of 15.6 ± 6.42 L/kg and a half-life [2, 12] of 15.8 ± 9.82 h. For the same molecule, the clearance ([2]; rat, plasma, oral, PND i.g 3.5 mg/kg after i.p. Ibrutinib (100 mg/kg) pretreatment, Mean ± SD, n = 3, read-out: CLz (converted)) was 13.5 mL/min/kg, the MRT inf ([2]; rat, plasma, oral, PND i.g 3.5 mg/kg after i.p. Ibrutinib (100 mg/kg) pretreatment, Mean ± SD) was 23.9 ± 12.7 h and the Cmax ([2]; rat, plasma, po, PND i.g 3.5 mg/kg, Control, Mean ± SD, n = 3, read-out: Cmax-1) was 229 ± 128 ng/mL. For the same molecule, the Cmax ([2]; rat, plasma, po, PND i.g 3.5 mg/kg, Control, Mean ± SD, n = 3, read-out: Cmax-2) was 197 ± 46.8 ng/mL, the Tmax ([2]; rat, plasma, po, PND i.g 3.5 mg/kg, Control, Mean ± SD, n = 3, read-out: Tmax-1) was 0.61 ± 0.24 h and the Tmax ([2]; rat, plasma, po, PND i.g 3.5 mg/kg, Control, Mean ± SD, n = 3, read-out: Tmax-2) was 6 h. For the same molecule, the AUC(0-inf) [2, 13] was 4180 ± 1190 ng·h/mL, the half-life [2, 13] was 4.87 ± 0.3 h and the MRT inf ([2]; rat, plasma, po, PND i.g 3.5 mg/kg, Control, Mean ± SD) was 12.8 ± 0.22 h. The “Accumulation of PND in bile” value [3] was 2.68–3.35 % of dosing, the “PND metabolized in LMs in the presence of NADPH” value ([4]; NADPH, within 1 h, PND 2 µM) was “Approximately 96%” and the “Prototype drug eliminated in the presence of UDPGA” value (“Prototype drug eliminated” for short) ([4]; UDPGA, PND 2 µM) was “more than 65%”. For the same molecule, the “Stability in LMs without co-factors” value ([4]; without NADPH or UDPGA) was “stable”, the “PND metabolized in LMs in the presence of NADPH” value ([5]; NADPH, within 1 h, PND 2 µM) was roughly 89% and the “Prototype drug eliminated” value ([5]; UDPGA, PND 2 µM) was “more than 65%”. The “Stability in LMs without co-factors” value ([5]; without NADPH or UDPGA) was “stable”, the “PND diminished in LM system in the presence of NADPH” value ([6]; NADPH, within 60 min, PND 2 µM) was “Less than 16%” and the “Prototype drug eliminated” value ([6]; UDPGA, PND 2 µM) was “more than 65%”. The “Stability in LMs without co-factors” value ([6]; without NADPH or UDPGA) was “stable”, the Clint (CYPs (rat LMs)) was 0.073 µL/min and the Vmax (CYPs (rat LMs)) was 1.11 nmol/(min×mg Protein). For the same molecule, the Clint (CYPs (mouse LMs)) was 0.069 µL/min, the Vmax (CYPs (mouse LMs)) was 1.11 nmol/(min×mg Protein) and the Clint (CYPs (human LMs)) was 0.013 µL/min. For the same molecule, the Vmax (CYPs (human LMs)) was 1.28 nmol/(min×mg Protein), the Clint (UGTs (rat LMs)) was 0.030 µL/min and the Km (UGTs (rat LMs)) was 46.7 µM. The Vmax (UGTs (rat LMs)) was 1.38 nmol/(min×mg Protein), the Clint (UGTs (mouse LMs)) was 0.198 µL/min and the Km (UGTs (mouse LMs)) was 31.6 µM. For the same molecule, the Vmax (UGTs (mouse LMs)) was 6 nmol/(min×mg Protein) and 6.25 nmol/(min×mg Protein), the Clint (UGTs (human LMs)) was 0.089 µL/min and the Km (UGTs (human LMs)) was 23.4 µM. For the same molecule, the Vmax (UGTs (human LMs)) was 2.08 nmol/(min×mg Protein), the “Protection against IAV-induced death and weight loss” value (IAV) was “protect mice against IAV-induced death and weight loss” and the Bioavailability [7] was “low”. The Km (CYPs [8]) was 15.2 µM, the Km (CYPs [9]) was 16.1 µM and the Km (CYPs [10]) was 97.7 µM.
